Measurements published in the NIST ThermoML archive (doi:10.1021/je2000827).

Conditions: Liquid; for vapor or sublimation pressure: Closed cell (Static) method

CCF [fluoroethane]
Conditions | mass density [kg/m3] | vapor or sublimation pressure [kPa]
231.49 K | 822.41 | 83.13
234.21 K | 817.05 | 94.43
236.99 K | 812.28 | 107.29
239.38 K | 807.75 | 119.32
242.26 K | 802.85 | 135.31
244.45 K | 798.89 | 148.5
247.17 K | 794.45 | 166.36
249.55 K | 790.12 | 183.2
252.04 K | 784.97 | 202.06
254.66 K | 781.18 | 223.94
256.86 K | 777.42 | 243.51
259.79 K | 772.38 | 271.62
261.53 K | 769.17 | 289.32
264.92 K | 762.96 | 326.52
267.46 K | 758.21 | 356.63
270.02 K | 753.26 | 389.01
272.57 K | 748.47 | 423.54
275.14 K | 743.66 | 460.69
277.69 K | 738.45 | 499.68
280.25 K | 734.48 | 542.23
282.93 K | 728.08 | 587.98
285.36 K | 724.27 | 633.63
288.87 K | 715.99 | 701.87
290.5 K | 713.52 | 736.6
293.49 K | 706.47 | 801.35
296.62 K | 699.98 | 874.83
298.35 K | 696.18 | 917.13
301.4 K | 689.76 | 996.4
303.42 K | 685.09 | 1051
305.56 K | 680.24 | 1111.4
308.36 K | 673.98 | 1195.1
311.02 K | 667.87 | 1278.7
313.56 K | 661.98 | 1362.7
316.06 K | 655.89 | 1439.2
318.06 K | 650.99 | 1511.1
320.34 K | 645.22 | 1596.5
322.83 K | 638.81 | 1683.8
325.41 K | 632.16 | 1800.8
328.04 K | 625.04 | 1922.5
330.58 K | 617.82 | 2035.8
332.88 K | 609.12 | 2105.8
335.61 K | 599.54 | 2262.5
337.83 K | 591.63 | 2369.9
340.19 K | 583.39 | 2489.5
343.01 K | 573.25 | 2639

FC(F)Cl [chlorodifluoromethane]
Conditions | mass density [kg/m3] | vapor or sublimation pressure [kPa]
237.03 K | 1396.88 | 125.48
242.05 K | 1380.58 | 156.52
248.23 K | 1361.7 | 202.41
250.79 K | 1352.02 | 223.86
257.12 K | 1333.18 | 285.6
262.27 K | 1317.65 | 343.76
267.03 K | 1302.17 | 405.65
272.37 K | 1283.62 | 485.71
276.67 K | 1268.86 | 558.12
283.21 K | 1244.97 | 682.58
287.52 K | 1231.04 | 774.37
294.06 K | 1206.17 | 932.29
298.34 K | 1188.92 | 1047.7
303.44 K | 1168.12 | 1201.9
306.98 K | 1156.73 | 1316.4
